# Test results taken from patent publication US11365196B2, “FGFR inhibitor and application thereof” (Betta Pharmaceuticals Co., Ltd., priority 2017, dated 2022).
# Tested on: NCI-H1581 cells
# Experiment: Cell proliferation assay on NCI-H1581 (Table 7)
# Format: cell-based, human
# Details: Homo sapiens, NCI-H1581, read-out: IC50(nM) value of compounds on NCI-H1581 cells
# Description: Test method: adding the appropriate volume of whole medium and the cells was suspended.
row,Structure (SMILES),IC50 [nM]
1,"CCN1CCC(c2ccc(Nc3ncc4cc(-c5cc6[nH]c(C)nc6cc5Cl)c5nncn5c4n3)cc2)CC1 [Compound 79, 6-(5-chloro-2-methyl-1H-benzo[d]imidazol-6-yl)-N-(4-(1-ethylpiperidin-4-yl)phenyl)-[1,2,4]triazolo[4′,3′:1,6]pyrido[2,3-d]pyrimidin-2-amine]",11.5
2,"COc1cc(OC)c(Cl)c(-c2cc3cnc(Nc4ccc(C(=O)N5C[C@@H](C)N[C@@H](C)C5)cc4)nc3n3cnnc23)c1 [Compound 59, (4-((6-(2-chloro-3,5-dimethoxyphenyl)-[1,2,4]triazolo[4′,3′:1,6]pyrido[2,3-d]pyrimidin-2-yl)amino)phenyl)((3 S,5R)-3,5-dimethylpiperazin-1-yl)methanone]",1.8
3,"COc1cc(OC)c(Cl)c(-c2cc3cnc(Nc4ccc(CN5CCOCC5)cc4)nc3n3cnnc23)c1 [Compound 45, 6-(2-chloro-3,5-dimethoxyphenyl)-N-(4-(morpholinomethyl)phenyl)-[1,2,4]triazolo[4′,3′:1,6]pyrido[2,3-d]pyrimidin-2-amine]",0.9
4,"COc1cc(OC)c(Cl)c(-c2cc3cnc(Nc4ccc(OCCN5CCCC5)cc4)nc3n3cnnc23)c1 [Compound 28, 6-(2-chloro-3,5-dimethoxyphenyl)-N-(4-(2-(pyrrolidin-1-yl)ethoxy)phenyl)-[1,2,4]triazolo[4′,3′:1,6]pyrido[2,3-d]pyrimidin-2-amine]",2.9
5,"COc1cc(OC)c(Cl)c(-c2cc3cnc(Nc4ccc(N5CCN6CCC[C@H]6C5)cc4)nc3n3cnnc23)c1 [Compound 25, (S)-6-(2-chloro-3,5-dimethoxyphenyl)-N-(4-(hexahydropyrrolo[1,2-a]pyrazin-2(1H)-yl)phenyl)-[1,2,4]triazolo[4′,3′:1,6]pyrido[2,3-d]pyrimidin-2-amine]",1 to 10

# Same assay, conditions: Homo sapiens, NCI-H1581; CellTiter 96 AQueous (144 hrs) or CellTiter Glo (96 hrs); class symbols; read-out: IC50(nM) value of compounds on NCI-H1581 cells
row,IC50 [nM],Structure (SMILES)
1,1 to 10,"COc1cc(OC)c(Cl)c(-c2cc3cnc(Nc4ccc(C5CCN(C)CC5)cc4)nc3n3cnnc23)c1 [Compound 37, 6-(2-chloro-3,5-dimethoxyphenyl)-N-(4-(1-methylpiperidin-4-yl)phenyl)-[1,2,4]triazolo[4′,3′:1,6]pyrido[2,3-d]pyrimidin-2-amine]"
2,1 to 10,"COc1cc(OC)c(Cl)c(-c2cc3cnc(Nc4ccc(OCCN5CCOCC5)cc4)nc3n3cnnc23)c1 [Compound 33, 6-(2-chloro-3,5-dimethoxyphenyl)-N-(4-(2-morpholinoethoxy)phenyl)-[1,2,4]triazolo[4′,3′:1,6]pyrido[2,3-d]pyrimidin-2-amine]"
3,1 to 10,"C=CC(=O)N1CCN(CCCc2nc3c(-c4c(Cl)c(OC)cc(OC)c4Cl)cc4cnc(NCC(F)(F)F)nc4n3n2)CC1 [Compound 137, 1-(4-(3-(4-(2,6-dichloro-3,5-dimethoxyphenyl)-8-((2,2,2-trifluoroethyl)amino)-[1,2,4]triazolo[1′,5′:1,6]pyrido[2,3-d]pyrimidin-2-yl)propyl)piperazin-1-yl)prop-2-en-1-one]"
4,10 to 100,"C=CC(=O)N1CCN(Cc2nc3c(-c4cc(OC)cc(OC)c4Cl)cc4cnc(NC)nc4n3n2)CC1 [Compound 117, 1-(4-((4-(2-chloro-3,5-dimethoxyphenyl)-8-(methylamino)-[1,2,4]triazolo[1′,5′:1,6]pyrido[2,3-d]pyrimidin-2-yl)methyl)piperazin-1-yl)prop-2-en-1-one]"
5,10 to 100,"C=CC(=O)N1CCN(CCc2nc3c(-c4cc(OC)cc(OC)c4Cl)cc4cnc(NC)nc4n3n2)CC1 [Compound 116, 1-(4-(2-(4-(2-chloro-3,5-dimethoxyphenyl)-8-(methylamino)-[1,2,4]triazolo[1′,5′:1,6]pyrido[2,3-d]pyrimidin-2-yl)ethyl)piperazin-1-yl)prop-2-en-1-one]"
6,> 100,"Cc1nc2ccc(-c3cc4cnc(Nc5ccc(N6CCOCC6)cc5)nc4n4cnnc34)c(Cl)c2[nH]1 [Compound 83, 6-(7-chloro-2-methyl-1H-benzo[d]imidazol-6-yl)-N-(4-morpholinophenyl)-[1,2,4]triazolo[4′,3′:1,6]pyrido[2,3-d]pyrimidin-2-amine]"
7,1 to 10,"COc1cc(OC)c(Cl)c(-c2cc3cnc(Nc4cccc(N5CCN6CCC[C@@H]6C5)c4)nc3n3cnnc23)c1 [Compound 38, (R)-6-(2-chloro-3,5-dimethoxyphenyl)-N-(3-(hexahydropyrrolo[1,2-a]pyrazin-2(1H)-yl)phenyl)-[1,2,4]triazolo[4′,3′:1,6]pyrido[2,3-d]pyrimidin-2-amine]"
8,> 100,"CNc1ncc2cc(-c3c(Cl)c(OC)cc(OC)c3Cl)c3nc(CCCN4CCN(C(=O)C(C#N)=CC(C)(C)C)CC4)nn3c2n1 [Compound 148, 2-(4-(3-(4-(2,6-dichloro-3,5-dimethoxyphenyl)-8-(methylamino)-[1,2,4]triazolo[1′,5′:1,6]pyrido[2,3-d]pyrimidin-2-yl)propyl)piperazine-1-carbonyl)-4,4-dimethylpent-2-enenitrile]"
9,10 to 100,"C=CC(=O)N1C[C@@H](C)N(CCCc2nc3c(-c4c(Cl)c(OC)cc(OC)c4Cl)cc4cnc(NC)nc4n3n2)[C@@H](C)C1 [Compound 131, 1-((3S,5R)-4-(3-(4-(2,6-dichloro-3,5-dimethoxyphenyl)-8-(methylamino)-[1,2,4]triazolo[1′,5′:1,6]pyrido[2,3-d]pyrimidin-2-yl)propyl)-3,5-dimethylpiperazin-1-yl)prop-2-en-1-one]"
10,< 1,"COc1cc(OC)c(Cl)c(-c2cc3cnc(Nc4ccc(C(=O)N5C[C@@H](C)N[C@@H](C)C5)cc4)nc3n3cnnc23)c1Cl [Compound 60, (4-((6-(2,6-dichloro-3,5-dimethoxyphenyl)-[1,2,4]triazolo[4′,3′:1,6]pyrido[2,3-d]pyrimidin-2-yl)amino)phenyl)((3S,5R)-3,5-dimethylpiperazin-1-yl)methanone]"
11,1 to 10,"COc1cc(OC)c(Cl)c(-c2cc3cnc(Nc4ccc(N5C[C@@H](C)N[C@@H](C)C5)c(OC)c4)nc3n3cnnc23)c1 [Compound 55, 6-(2-chloro-3,5-dimethoxyphenyl)-N-(4-((3 S,5R)-3,5-dimethylpiperazin-1-yl)-3-methoxyphenyl)-[1,2,4]triazolo[4′,3′:1,6]pyrido[2,3-d]pyrimidin-2-amine]"
12,1 to 10,"C=CC(=O)N1CCN(CCc2nc3c(-c4c(Cl)c(OC)cc(OC)c4Cl)cc4cnc(NC)nc4n3n2)CC1 [Compound 124, 1-(4-(2-(4-(2,6-dichloro-3,5-dimethoxyphenyl)-8-(methylamino)-[1,2,4]triazolo[1′,5′:1,6]pyrido[2,3-d]pyrimidin-2-yl)ethyl)piperazin-1-yl)prop-2-en-1-one]"
13,< 1,"CNC1CCN(c2ccc(Nc3ncc4cc(-c5cc(OC)cc(OC)c5Cl)c5nncn5c4n3)cc2)CC1 [Compound 49, 6-(2-chloro-3,5-dimethoxyphenyl)-N-(4-(4-(methylamino)piperidin-1-yl)phenyl)-[1,2,4]triazolo[4′,3′:1,6]pyrido[2,3-d]pyrimidin-2-amine]"
14,> 100,"COc1cc(OC)c(Cl)c(-c2cc3cnc(Nc4ccc(N5CC(=O)N6CCC[C@@H]6C5)cc4)nc3n3cnnc23)c1 [Compound 40, (R)-2-(4-((6-(2-chloro-3,5-dimethoxyphenyl)-[1,2,4]triazolo[4′,3′:1,6]pyrido[2,3-d]pyrimidin-2-yl)amino)phenyl)hexahydropyrrolo[1,2-a]pyrazin-4(1H)-one]"
